From PubChem BioAssay AID248 (DTP/NCI, 2004)
Where “and” joins values, the source holds several entries; their conditions need not be identical. Equal entries are not always repeated. Inconclusive results and toxic doses are left out. No stated cut-off is given here; in the data, active means T/C of 150% or more; inactive means T/C below 125%.

Test system: L1210 leukemia ip in BDF1 mice, survival T/C
Test: NCI In Vivo Anticancer Drug Screen. Data for tumor model L1210 Leukemia (intraperitoneal) in B6D2F1 (BDF1) mice
Conditions: endpoint: mean survival time, higher = longer survival
Method in brief: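 Tumor was transplanted into mice, which were then dosed with test compound or vehicle alone. Survival was recorded for each group, and the treated figure was expressed relative to the control figure.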

[1] = dose: 400.0 mg/kg/injection, schedule: Q01DX001 (ip), vehicle: carboxymethylcellulose (CMC)
[2] = dose: 50.0 mg/kg/injection, schedule: Q01DX009 (ip), vehicle: saline
[3] = dose: 100.0 mg/kg/injection, schedule: Q01DX009 (ip), vehicle: saline with Tween-80
[4] = dose: 100.0 mg/kg/injection, schedule: Q04DX003 (ip), vehicle: saline with Tween-80
[5] = dose: 200.0 mg/kg/injection, schedule: Q01DX009 (ip), vehicle: saline with Tween-80
[6] = dose: 200.0 mg/kg/injection, schedule: Q04DX003 (ip), vehicle: saline with Tween-80
[7] = dose: 400.0 mg/kg/injection, schedule: Q01DX009 (ip), vehicle: saline with Tween-80
[8] = dose: 400.0 mg/kg/injection, schedule: Q04DX003 (ip), vehicle: saline with Tween-80

Measured: T/C

CC1Cc2c(Cl)cc(C(=O)NC(Cc3ccccc3)C(=O)O)c(O)c2C(=O)O1 (stereo not drawn)
inactive: dose: 0.12 mg/kg/injection, schedule: Q01DX009 (ip), vehicle: saline with Tween-80 95 % of control | dose: 0.25 mg/kg/injection, schedule: Q01DX009 (ip), vehicle: saline with Tween-80 93 % of control | dose: 0.5 mg/kg/injection, schedule: Q01DX009 (ip), vehicle: saline with Tween-80 96 % of control | dose: 1.0 mg/kg/injection, schedule: Q01DX009 (ip), vehicle: saline with Tween-80 96 % of control | dose: 50.0 mg/kg/injection, schedule: Q01DX001 (ip), vehicle: carboxymethylcellulose (CMC) 100 % of control | dose: 100.0 mg/kg/injection, schedule: Q01DX001 (ip), vehicle: carboxymethylcellulose (CMC) 107 % of control

COc1cccc2c1C(=O)c1c(O)c3c(c(O)c1C2=O)C[C@@](O)(/C(C)=N\O)C[C@@H]3OC1CC(N)C(O)C(C)O1 (stereo partly drawn)
inactive: dose: 1.0 mg/kg/injection, schedule: Q04DX003 (ip), vehicle: water 106 % of control | dose: 2.0 mg/kg/injection, schedule: Q04DX003 (ip), vehicle: water 115 % of control | dose: 4.0 mg/kg/injection, schedule: Q04DX003 (ip), vehicle: water 113 % of control

Oc1ccc(C2SC(c3ccc(O)cc3)SC(c3ccc(O)cc3)S2)cc1 (stereo not drawn)
inactive: dose: 200.0 mg/kg/injection, schedule: Q01DX001 (ip), vehicle: carboxymethylcellulose (CMC) 88 % of control | [1] 88 % of control

CCCCNC(=O)C1CC2c3cccc4c3c(cn4C)CC2N(C)C1 (stereo not drawn)
inactive: dose: 3.12 mg/kg/injection, schedule: Q01DX009 (ip), vehicle: saline 100 % of control | dose: 6.25 mg/kg/injection, schedule: Q01DX009 (ip), vehicle: saline 92 % of control | dose: 12.5 mg/kg/injection, schedule: Q01DX009 (ip), vehicle: saline 100 % of control | dose: 25.0 mg/kg/injection, schedule: Q01DX009 (ip), vehicle: saline 94 % of control | [2] 101 % of control

CCCC(C)c1ccc(C(C)=O)cc1 (stereo not drawn)
inactive: dose: 25.6 mg/kg/injection, schedule: Q04DX002 (ip), vehicle: saline with Tween-80 100 % of control | dose: 64.0 mg/kg/injection, schedule: Q04DX002 (ip), vehicle: saline with Tween-80 92 % of control | [3] 89 % of control | [4] 91 % of control | dose: 160.0 mg/kg/injection, schedule: Q04DX002 (ip), vehicle: saline with Tween-80 88 % of control | [5] 89 % of control | [6] 96 % of control | [7] 90 % of control | dose: 400.0 mg/kg/injection, schedule: Q04DX002 (ip), vehicle: saline with Tween-80 92 % of control | [8] 88 % of control

Cc1ccc(/C(=C\c2ccccc2)C(=O)c2ccccc2)cc1
inactive: dose: 100.0 mg/kg/injection, schedule: Q01DX009 (ip), vehicle: Klucel (hydroxypropylcellulose) (HPC) 95 % of control | dose: 100.0 mg/kg/injection, schedule: Q04DX003 (ip), vehicle: Klucel (hydroxypropylcellulose) (HPC) 93 % of control | dose: 200.0 mg/kg/injection, schedule: Q01DX009 (ip), vehicle: Klucel (hydroxypropylcellulose) (HPC) 92 % of control | dose: 200.0 mg/kg/injection, schedule: Q04DX003 (ip), vehicle: Klucel (hydroxypropylcellulose) (HPC) 93 % of control | dose: 400.0 mg/kg/injection, schedule: Q01DX009 (ip), vehicle: Klucel (hydroxypropylcellulose) (HPC) 95 % of control | dose: 400.0 mg/kg/injection, schedule: Q04DX003 (ip), vehicle: Klucel (hydroxypropylcellulose) (HPC) 101 % of control

S=c1nc[nH]c2n[nH]nc12
inactive: dose: 12.5 mg/kg/injection, schedule: Q01DX001 (ip), vehicle: saline with Tween-80 104 % of control | dose: 25.0 mg/kg/injection, schedule: Q01DX001 (ip), vehicle: saline with Tween-80 103 % of control | dose: 50.0 mg/kg/injection, schedule: Q01DX001 (ip), vehicle: saline with Tween-80 98 % of control | dose: 100.0 mg/kg/injection, schedule: Q01DX001 (ip), vehicle: saline with Tween-80 98 % of control | dose: 200.0 mg/kg/injection, schedule: Q01DX001 (ip), vehicle: saline with Tween-80 101 % of control | dose: 400.0 mg/kg/injection, schedule: Q01DX001 (ip), vehicle: saline with Tween-80 103 % of control

CCSc1ccc2c(cc1=O)C(N)CCc1cc(OC)c(OC)c(OC)c1-2 (stereo not drawn)
inactive: dose: 12.5 mg/kg/injection, schedule: Q04DX002 (ip), vehicle: saline 107 % of control | dose: 25.0 mg/kg/injection, schedule: Q04DX002 (ip), vehicle: saline 95 % of control | dose: 50.0 mg/kg/injection, schedule: Q04DX002 (ip), vehicle: saline 98 % of control

C1CCC2C[N-]CCC2C1.C1CCC2C[N-]CCC2C1.C1CCC2C[N-]CCC2C1.C1CCC2C[N-]CCC2C1.[I][Fe][I] (stereo not drawn)
inactive: [2] 89 % of control | dose: 100.0 mg/kg/injection, schedule: Q01DX009 (ip), vehicle: saline 94 % of control

COc1ccc(C#N)cc1OC
inactive: dose: 6.25 mg/kg/injection, schedule: Q04DX002 (ip), vehicle: Klucel (hydroxypropylcellulose) (HPC) 93 % of control | dose: 12.5 mg/kg/injection, schedule: Q04DX002 (ip), vehicle: Klucel (hydroxypropylcellulose) (HPC) 96 % of control | dose: 25.0 mg/kg/injection, schedule: Q04DX002 (ip), vehicle: Klucel (hydroxypropylcellulose) (HPC) 93 % of control and 96 % of control | dose: 100.0 mg/kg/injection, schedule: Q04DX002 (ip), vehicle: Klucel (hydroxypropylcellulose) (HPC) 100 % of control | dose: 200.0 mg/kg/injection, schedule: Q04DX002 (ip), vehicle: Klucel (hydroxypropylcellulose) (HPC) 92 % of control

CC(C)(C)c1ccc(OC(=O)Nc2cccc(C(F)(F)F)c2)cc1
inactive: dose: 100.0 mg/kg/injection, schedule: Q01DX009 (ip), vehicle: gum acacia 101 % of control | dose: 200.0 mg/kg/injection, schedule: Q01DX009 (ip), vehicle: gum acacia 95 % of control | dose: 400.0 mg/kg/injection, schedule: Q01DX009 (ip), vehicle: gum acacia 103 % of control

O=C(NCc1cnccn1)c1ccc([N+](=O)[O-])cc1
inactive: [3] 98 % of control | [5] 104 % of control | [7] 98 % of control

CCOC(=O)C(=Cc1c[nH]c2ccc(Br)cc12)C(=O)OCC
inactive: [3] 98 % of control | [4] 89 % of control | [5] 104 % of control | [6] 96 % of control | [7] 101 % of control | [8] 91 % of control

FC(F)(F)C(c1ccc(Cl)cc1)c1ccc(Cl)cc1
inactive: dose: 10.0 mg/kg/injection, schedule: Q01DX009 (ip), vehicle: saline with Tween-80 105 % of control | dose: 20.0 mg/kg/injection, schedule: Q01DX009 (ip), vehicle: saline with Tween-80 89 % of control | dose: 40.0 mg/kg/injection, schedule: Q01DX009 (ip), vehicle: saline with Tween-80 97 % of control | dose: 50.0 mg/kg/injection, schedule: Q01DX001 (ip), vehicle: saline 103 % of control | dose: 100.0 mg/kg/injection, schedule: Q01DX001 (ip), vehicle: saline 97 % of control | dose: 100.0 mg/kg/injection, schedule: Q01DX009 (ip), vehicle: other 97 % of control | [4] 103 % of control | dose: 200.0 mg/kg/injection, schedule: Q01DX001 (ip), vehicle: saline 97 % of control | [6] 102 % of control | dose: 400.0 mg/kg/injection, schedule: Q01DX001 (ip), vehicle: saline 103 % of control | [8] 100 % of control

CC(C)CC(NC(=O)CN)C(=O)O (stereo not drawn)
inactive: dose: 100.0 mg/kg/injection, schedule: Q04DX003 (ip), vehicle: saline 107 % of control | dose: 200.0 mg/kg/injection, schedule: Q04DX003 (ip), vehicle: saline 104 % of control | dose: 400.0 mg/kg/injection, schedule: Q04DX003 (ip), vehicle: saline 107 % of control

O=C(NC(=O)c1ccc([N+](=O)[O-])cc1)Nc1ccccc1
inactive: dose: 264.0 mg/kg/injection, schedule: Q01DX001 (ip), vehicle: carboxymethylcellulose (CMC) 92 % of control | [1] 96 % of control | dose: 600.0 mg/kg/injection, schedule: Q01DX001 (ip), vehicle: carboxymethylcellulose (CMC) 88 % of control

O=c1[nH]c(=S)[nH]c2nccnc12
inactive: dose: 16.0 mg/kg/injection, schedule: Q01DX Z (ip), vehicle: methylcellulose (MC) 108 % of control | dose: 31.0 mg/kg/injection, schedule: Q01DX Z (ip), vehicle: methylcellulose (MC) 103 % of control | dose: 62.0 mg/kg/injection, schedule: Q01DX Z (ip), vehicle: methylcellulose (MC) 105 % of control | dose: 125.0 mg/kg/injection, schedule: Q01DX Z (ip), vehicle: methylcellulose (MC) 97 % of control and 106 % of control | dose: 250.0 mg/kg/injection, schedule: Q01DX Z (ip), vehicle: methylcellulose (MC) 97 % of control | dose: 500.0 mg/kg/injection, schedule: Q01DX Z (ip), vehicle: methylcellulose (MC) 106 % of control
